Values after ≈ are worked out from the molar mass of the structure shown.
Assays:
[1] = tested on: Pseudomonas aeruginosa; assay: Potentiation of ciprofloxacin-induced antibacterial activity against wild type Pseudomonas aeruginosa PAO1 assessed as ciprofloxacin MIC measured after 18 hrs by CLSI protocol based microbroth dilution method (reference value: 0.125 ug/ml); assay type: functional
[2] = tested on: Pseudomonas aeruginosa; assay: Antibacterial activity against Pseudomonas aeruginosa ATCC 27853 assessed as inhibition of visible growth incubated for 18 hrs by CLSI protocol based microbroth dilution method; assay type: functional
[3] = tested on: Staphylococcus epidermidis; assay: Antibacterial activity against methicillin-susceptible Staphylococcus epidermidis clinical isolate CANWARD-2008 81388 assessed as inhibition of visible growth incubated for 18 hrs by CLSI protocol based microbroth dilution method; assay type: functional
[4] = tested on: Streptococcus pneumoniae; assay: Antibacterial activity against Streptococcus pneumoniae ATCC 49619 assessed as inhibition of visible growth incubated for 18 hrs by CLSI protocol based microbroth dilution method; assay type: functional
[5] = tested on: Escherichia coli; assay: Antibacterial activity against Escherichia coli ATCC 25922 assessed as inhibition of visible growth incubated for 18 hrs by CLSI protocol based microbroth dilution method; assay type: functional
[6] = tested on: Pseudomonas aeruginosa; assay: Potentiation of moxifloxacin-induced antibacterial activity against wild type Pseudomonas aeruginosa PAO1 assessed as moxifloxacin MIC measured after 18 hrs by CLSI protocol based microbroth dilution method (reference value: 1 ug/ml); assay type: functional
[7] = tested on: Staphylococcus aureus; assay: Antibacterial activity against Staphylococcus aureus ATCC 29213 assessed as inhibition of visible growth incubated for 18 hrs by CLSI protocol based microbroth dilution method; assay type: functional
[8] = tested on: Staphylococcus aureus; assay: Antibacterial activity against methicillin-resistant Staphylococcus aureus clinical isolate CAN-ICU 61589 assessed as inhibition of visible growth incubated for 18 hrs by CLSI protocol based microbroth dilution method; assay type: functional
[9] = tested on: Staphylococcus aureus; assay: Antibacterial activity against methicillin-resistant Staphylococcus aureus ATCC 33592 assessed as inhibition of visible growth incubated for 18 hrs by CLSI protocol based microbroth dilution method; assay type: functional
[10] = tested on: Pseudomonas aeruginosa; assay: Potentiation of levofloxacin-induced antibacterial activity against wild type Pseudomonas aeruginosa PAO1 assessed as levofloxacin MIC measured after 18 hrs by CLSI protocol based microbroth dilution method (reference value: 0.5 ug/ml); assay type: functional
[11] = tested on: Klebsiella pneumoniae; assay: Antibacterial activity against Klebsiella pneumoniae 116381 assessed as inhibition of visible growth incubated for 18 hrs by CLSI protocol based microbroth dilution method; assay type: functional
[12] = tested on: Stenotrophomonas maltophilia; assay: Antibacterial activity against Stenotrophomonas maltophilia clinical isolate CAN-ICU 62584 assessed as inhibition of visible growth incubated for 18 hrs by CLSI protocol based microbroth dilution method; assay type: functional
[13] = tested on: Enterococcus faecalis; assay: Antibacterial activity against Enterococcus faecalis ATCC 29212 assessed as inhibition of visible growth incubated for 18 hrs by CLSI protocol based microbroth dilution method; assay type: functional
[14] = tested on: Enterobacter cloacae; assay: Antibacterial activity against Enterobacter cloacae 117029 assessed as inhibition of visible growth incubated for 18 hrs by CLSI protocol based microbroth dilution method; assay type: functional
[15] = tested on: Acinetobacter baumannii; assay: Antibacterial activity against Acinetobacter baumannii clinical isolate CAN-ICU 63169 assessed as inhibition of visible growth incubated for 18 hrs by CLSI protocol based microbroth dilution method; assay type: functional
[16] = tested on: Pseudomonas aeruginosa; assay: microbe, parasite or virus in culture; conditions: PAO1, 18 h
[17] = tested on: Pseudomonas aeruginosa; assay: microbe, parasite or virus in culture; conditions: PAO1, 18 h; remark: listed apart in the source
[18] = tested on: Pseudomonas aeruginosa; assay: microbe, parasite or virus in culture; conditions: PAO1, 18 h; remark: listed apart in the source

| SMILES | MIC [1] | MIC [2] | MIC [3] | MIC [4] | MIC [5] | MIC [6] | MIC [7] | MIC [8] | MIC [9] | MIC [10] | MIC [11] | MIC [12] | MIC [13] | MIC [14] | MIC [15] | MIC [16] | MIC [17] | MIC [18] |
| --- | --- | --- | --- | --- | --- | --- | --- | --- | --- | --- | --- | --- | --- | --- | --- | --- | --- | --- |
| C[C@H]1COc2c(N3CCN(C)CC3)c(F)cc3c(=O)c(C(=O)N[C@@H](CCC(=O)O)C(=O)N[C@H](CN)CCC(=O)O)cn1c23 | 0.125 µg/mL | > 128 µg/mL | > 128 µg/mL | > 128 µg/mL | 128 µg/mL (≈ 212 µM) | 1 µg/mL | > 128 µg/mL | > 128 µg/mL | > 128 µg/mL | 0.5 µg/mL | > 128 µg/mL | 16 µg/mL (≈ 26.5 µM) | > 128 µg/mL | > 128 µg/mL | > 128 µg/mL |  |  |  |
| COc1c(N2C[C@@H]3CCCN[C@@H]3C2)c(F)cc2c(=O)c(C(=O)O)cn(C3CC3)c12 [MOXIFLOXACIN] |  |  |  |  |  |  |  |  |  |  |  |  |  |  |  | 8 µg/mL (≈ 19.9 µM) | 16 µg/mL (≈ 39.9 µM) | 8 µg/mL (≈ 19.9 µM) |
| C[C@H]1COc2c(N3CCN(C)CC3)c(F)cc3c(=O)c(C(=O)N[C@@H](CCN)C(N)=O)cn1c23 | 0.125 µg/mL | > 128 µg/mL | > 128 µg/mL | > 128 µg/mL | 128 µg/mL (≈ 278 µM) | 1 µg/mL | > 128 µg/mL | > 128 µg/mL | > 128 µg/mL | 0.5 µg/mL | > 128 µg/mL | > 128 µg/mL | > 128 µg/mL | > 128 µg/mL | > 128 µg/mL |  |  |  |
| C[C@H]1COc2c(N3CCN(C)CC3)c(F)cc3c(=O)c(C(=O)N[C@@H](CCN)C(=O)N[C@@H](CCN)C(N)=O)cn1c23 | 0.125 µg/mL | > 128 µg/mL | > 128 µg/mL | > 128 µg/mL | 128 µg/mL (≈ 228 µM) | 1 µg/mL | > 128 µg/mL | > 128 µg/mL | > 128 µg/mL | 0.25 µg/mL | > 128 µg/mL | > 128 µg/mL | > 128 µg/mL | > 128 µg/mL | > 128 µg/mL |  |  |  |
| C[C@H]1COc2c(N3CCN(C)CC3)c(F)cc3c(=O)c(C(=O)NCCCCCCCCCCCC(=O)N[C@@H](CCN)C(N)=O)cn1c23 | 0.063 µg/mL | > 128 µg/mL | 64 µg/mL (≈ 97.3 µM) | > 128 µg/mL | > 128 µg/mL | 1 µg/mL | 128 µg/mL (≈ 195 µM) | 128 µg/mL (≈ 195 µM) | > 128 µg/mL | 0.25 µg/mL | > 128 µg/mL | > 128 µg/mL | > 128 µg/mL | 128 µg/mL (≈ 195 µM) | > 128 µg/mL |  |  |  |
| C[C@H]1COc2c(N3CCN(C)CC3)c(F)cc3c(=O)c(C(=O)N[C@H](CN)CCC(=O)O)cn1c23 | 0.125 µg/mL | > 128 µg/mL | > 128 µg/mL | > 128 µg/mL | > 128 µg/mL | 1 µg/mL | > 128 µg/mL | > 128 µg/mL | > 128 µg/mL | 0.5 µg/mL | > 128 µg/mL | > 128 µg/mL | > 128 µg/mL | > 128 µg/mL | > 128 µg/mL |  |  |  |
| O=C(O)c1cn(C2CC2)c2cc(N3CCNCC3)c(F)cc2c1=O [CIPROFLOXACIN] |  |  |  |  |  |  |  |  |  |  |  |  |  |  |  | 32 µg/mL (≈ 96.6 µM) |  | 16 µg/mL (≈ 48.3 µM) |
| C[C@H]1COc2c(N3CCN(C)CC3)c(F)cc3c(=O)c(C(=O)O)cn1c23.C[C@H]1COc2c(N3CCN(C)CC3)c(F)cc3c(=O)c(C(=O)O)cn1c23.O [LEVOFLOXACIN] |  |  | ≤ 0.25 µg/mL |  | ≤ 0.25 µg/mL |  | ≤ 0.25 µg/mL | > 128 µg/mL | ≤ 0.25 µg/mL |  | 128 µg/mL | 4 µg/mL | 2 µg/mL | 0.125 µg/mL | 1 µg/mL |  | 16 µg/mL | 16 µg/mL |
